Read-outs that look alike come from different tables or passages of the source. Each block holds one molecule with its values, some of them ahead of it.
Experiments:
#9 = assay: cells; set-up: species or system primary ALL patient cells; 3H-thymidine incorporation proliferation assay in primary ALL patient cells; details: 48 h
Method: (§1) Synthesis details of YKL-06-101 and JH-XI-10-02 are provided in Supplementary Notes 1 and 2. Proliferation of degrader-exposed human leukemic cell lines and primary ALL patient cells were examined by measuring 3H-thymidine uptake after 48 h. For immunoblottings and FACS analysis, cells were incubated with the indicated concentrations of the degraders up to 96 h.  Fig. 7 Chemical CDK8 degradation cooperates with mTOR inhibition. a Co-expression matrix of CDK8 and members of mTOR/PI3K signaling pathways in samples of 203 pediatric ALL patients (TARGET cohort, RNA-seq) and b 179 AML patients (TCGA AML cohort, RNA-seq). […] DMSO was used as vehicle control (D: DMSO, n = 3). Immunoblots show mTOR, CDK8, and pS6 after incubation of f REH cells or g Z119 cells with 0.5 µM and 1 µM of JH-XI-10-02 or YKL-06-101 for 48, 72, and 96 h. DMSO (indicated as D) was used as vehicle control and β-actin served as loading control. h AnnexinV/7AAD staining of Z119 cells incubated with 0.5 µM and 1 µM of JH-XI-10-02 or YKL-06-101 for 72 and 96 h. DMSO was used as a vehicle control (D: DMSO, n = 3). i AnnexinV/7AAD staining of Z119 cells incubated with Torin1, JH-XI-10-02, or both in combination with indicated concentrations for 72 and 96 h. DMSO (indicated as D) was used as a vehicle control. One representative experiment out of three is depicted. j Bar diagram depicts relative thymidine incorporation of six primary B-ALL patient samples incubated for 48 h with 1 μM of YKL-06-101. Patient #1 represents a non-responder, patient #4 was BCR-ABL1^+ (Ph^+), whereas the others were BCR-ABL1^− (Ph^−). Levels of significance were calculated using Kruskal–Wallis test followed by Dunn’s test, data represents means ± SD (*p < 0.05, **p < 0.01). Source data are provided as a Source Data file

#11 = assay: cells; set-up: species or system primary ALL patient cells; 3H-thymidine incorporation proliferation assay in primary ALL patient cells; details: 48 h
Method: as §1

#1 = assay: cells; set-up: species or system primary ALL patient cells; 3H-thymidine incorporation proliferation assay in primary ALL patient cells; details: 48 h
Method: as §1

#6 = assay: cells; set-up: species or system primary ALL patient cells; 3H-thymidine incorporation proliferation assay in primary ALL patient cells; details: 48 h
Method: as §1

#13 = assay: cells; set-up: species or system primary ALL patient cells; 3H-thymidine incorporation proliferation assay in primary ALL patient cells; details: 48 h
Method: as §1

#3 = assay: cells; set-up: species or system primary ALL patient cells; 3H-thymidine incorporation proliferation assay in primary ALL patient cells; details: 48 h
Method: as §1

#12 = assay: cells; set-up: species or system primary ALL patient cells; 3H-thymidine incorporation proliferation assay in primary ALL patient cells; details: 48 h
Method: as §1

#4 = assay: cells; set-up: species or system primary ALL patient cells; 3H-thymidine incorporation proliferation assay in primary ALL patient cells; details: 48 h
Method: as §1

#8 = assay: cells; set-up: species or system primary ALL patient cells; 3H-thymidine incorporation proliferation assay in primary ALL patient cells; details: 48 h
Method: as §1

#15 = assay: cells; set-up: species or system primary ALL patient cells; 3H-thymidine incorporation proliferation assay in primary ALL patient cells; details: 48 h
Method: as §1

#14 = assay: cells; set-up: species or system primary ALL patient cells; 3H-thymidine incorporation proliferation assay in primary ALL patient cells; details: 48 h
Method: as §1

#7 = assay: cells; set-up: species or system primary ALL patient cells; 3H-thymidine incorporation proliferation assay in primary ALL patient cells; details: 48 h
Method: as §1

CDK8 = CDK8 (Homo sapiens, UniProt P49336); assay: CDK8 kinase inhibition IC50 (assay not detailed in main text); type: biochemical
CDK8, sequence (P49336 whole entry): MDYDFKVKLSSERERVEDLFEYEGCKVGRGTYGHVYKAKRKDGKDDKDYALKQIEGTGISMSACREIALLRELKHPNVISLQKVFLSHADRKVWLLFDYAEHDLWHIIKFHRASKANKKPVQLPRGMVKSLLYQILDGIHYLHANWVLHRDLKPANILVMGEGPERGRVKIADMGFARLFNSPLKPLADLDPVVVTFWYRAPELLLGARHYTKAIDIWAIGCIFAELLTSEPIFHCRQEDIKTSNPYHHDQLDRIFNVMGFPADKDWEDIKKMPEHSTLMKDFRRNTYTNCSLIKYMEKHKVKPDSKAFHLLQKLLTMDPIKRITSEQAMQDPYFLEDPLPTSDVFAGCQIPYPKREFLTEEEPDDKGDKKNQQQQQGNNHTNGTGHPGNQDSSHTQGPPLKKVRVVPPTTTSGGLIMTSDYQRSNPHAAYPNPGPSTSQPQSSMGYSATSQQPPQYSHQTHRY

Molecule: CN(C(=O)CCOCCOCCOCCOCCNc1cccc2c1C(=O)N(C1CCC(=O)NC1=O)C2=O)[C@H]1CC[C@@]2(C)[C@@H](CC[C@@H]3[C@@H]2CC[C@]2(C)[C@@H](c4ccc5ccncc5c4)CC[C@@H]32)C1 (stereo partly shown) [JH-XI-10-02]
IC50 (#9; read-out: JH-XI-10-02 IC50): > 10 µM
IC50 (#11; read-out: JH-XI-10-02 IC50): > 10 µM
IC50 (#1; read-out: JH-XI-10-02 IC50): > 10 µM
IC50 (#6; read-out: JH-XI-10-02 IC50): > 10 µM
IC50 (#13; read-out: JH-XI-10-02 IC50): > 10 µM
IC50 (#3; read-out: JH-XI-10-02 IC50): > 10 µM
IC50 (#12; read-out: JH-XI-10-02 IC50): > 10 µM
IC50 (#4; read-out: JH-XI-10-02 IC50): > 10 µM
IC50 (#8; read-out: JH-XI-10-02 IC50): > 10 µM
IC50 (#15; read-out: JH-XI-10-02 IC50): > 10 µM
IC50 (#14; read-out: JH-XI-10-02 IC50): > 10 µM
IC50 (#7; read-out: JH-XI-10-02 IC50): > 10 µM

Molecule: O=C1CCC(N2C(=O)c3cccc(NCCOCCOCCOCCOCCOCCC(=O)N4CCN(c5ccc(-n6c(=O)ccc7cnc8ccc(-c9ccc%10ccncc%10c9)cc8c76)cc5C(F)(F)F)CC4)c3C2=O)C(=O)N1 (stereo not shown) [YKL-06-101]
IC50 (#9; read-out: YKL-06-101 IC50): 9 µM
IC50 (#11; read-out: YKL-06-101 IC50): 0.4 µM
IC50 (#1; read-out: YKL-06-101 IC50): > 10 µM
IC50 (#6; read-out: YKL-06-101 IC50): 0.1 µM
IC50 (#13; read-out: YKL-06-101 IC50): 0.3 µM
IC50 (#3; read-out: YKL-06-101 IC50): 0.9 µM
IC50 (#12; read-out: YKL-06-101 IC50): > 10 µM
IC50 (#4; read-out: YKL-06-101 IC50): > 10 µM
IC50 (#8; read-out: YKL-06-101 IC50): > 10 µM
IC50 (#15; read-out: YKL-06-101 IC50): 10 µM
IC50 (#14; read-out: YKL-06-101 IC50): > 10 µM
IC50 (#7; read-out: YKL-06-101 IC50): > 10 µM

IC50 (CDK8): 0.005 µM
Molecule: THZ4-55
